Experimental findings from US8513260B2, “Pyrazinylpyrazoles” (Bayer CropScience AG, priority 2009, dated 2013) are described below.

The test system of data set [1] is Lucilia cuprina larvae. Put plainly: Lucilia cuprina test (LUCICU). It is filed as in vivo. The following applies: 48 h, treated horse meat, after 2 days, read-out: efficacy (kill). Here is the method: Lucilia cuprina Test (LUCICU) Solvent: dimethyl sulphoxide To prepare an appropriate active ingredient formulation, 10 mg of active ingredient are mixed with 0.5 ml of dimethyl sulphoxide and the concentrate is diluted with water to the desired concentration. Vessels containing horse meat treated with the active ingredient preparation of the desired concentration are populated with about 20 Lucilia cuprina larvae. After 2 days, the kill in % is determined. 100% means that all of the larvae have been killed; 0% means that none of the larvae have been killed.

Data set [2] deals with larvae of the mustard beetle (Phaedon cochleariae). Put plainly: Phaedon test (PHAECO spray treatment). It is filed as in vivo. The following applies: Phaedon cochleariae, 168 h, Chinese cabbage discs, after 7 days, read-out: efficacy. The procedure, abridged: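 Chinese cabbage leaf discs were sprayed with compound formulated in acetone/dimethylformamide with alkylaryl polyglycol ether emulsifier and diluted in emulsifier-containing water. After drying, discs were populated with mustard beetle larvae. Efficacy (% larvae killed; 100% = all dead) was scored after 7 days.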

For data set [3], the system named is red spider mite (Tetranychus urticae). Put plainly: Tetranychus test, OP-resistant (TETRUR spray treatment). It counts as in vivo. The following applies: Tetranychus urticae, foliar, 144 h, 500 g/ha, bean leaf discs, after 6 days, read-out: efficacy. A digest of the protocol:
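Bean leaf discs (Phaseolus vulgaris) infested with all mite stages were sprayed with active ingredient diluted in emulsifier-containing water at the desired concentration. Mortality read after 6 days as % efficacy, where 100% = all mites killed and 0% = none killed.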

Data set [4] deals with adult Musca domestica. The data set can be described thus: Musca domestica test. It is filed as in vivo. The following applies: after 2 days. Here is the method: Musca domestica Test Solvent: dimethyl sulphoxide To prepare an appropriate active ingredient formulation, 10 mg of active ingredient are mixed with 0.5 ml of dimethyl sulphoxide and the concentrate is diluted with water to the desired concentration. Vessels containing a sponge treated with the active ingredient preparation of the desired concentration are populated with adult Musca domestica. After 2 days, the kill in % is determined. 100% means that all of the flies have been killed; 0% means that none of the flies have been killed.

Data set [5] concerns adult engorged Boophilus microplus females of the SP-resistant Parkhurst strain. Put plainly: Boophilus microplus (dip). It is filed as in vivo. The following applies: Rhipicephalus microplus, 168 h, after 7 days, laying of fertile eggs, read-out: efficacy. Here is the method: Boophilus microplus (dip)
Test animals: adult engorged Boophilus microplus females of the SP-resistant Parkhurst strain
Solvent: dimethyl sulphoxide
10 mg of active ingredient are dissolved in 0.5 ml of dimethyl sulphoxide. For the purpose of preparing a suitable formulation, the active ingredient solution is diluted with water to the concentration desired in each case. This active ingredient preparation is pipetted into tubes. 8-10 ticks are transferred into a further tube with holes. The tube is immersed into the active ingredient formulation, and all ticks are completely wetted. After the liquid has run out, the ticks are transferred onto filter discs in plastic dishes and stored in a climate-controlled room. The activity is assessed after 7 days by laying of fertile eggs. Eggs whose fertility is not outwardly visible are stored in glass tubes in a climate-controlled cabinet until the larvae hatch. Efficacy of 100% means that none of the ticks has laid any fertile eggs.

The test system of data set [6] is Boophilus microplus. Put plainly: Boophilus microplus test (BOOPMI injection). It is filed as in vivo. The following applies: Rhipicephalus microplus, 168 h; 20 μg animal; injection into the abdomen; after 7 days, laying of fertile eggs; read-out: efficacy. A digest of the protocol: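 Adult female ticks injected in the abdomen with active ingredient in DMSO, then held in a climate-controlled room. Efficacy (%) scored after 7 days from laying of fertile eggs, 100% meaning no tick laid fertile eggs.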

A short description of data set [7]: logP by HPLC on reversed-phase columns (C 18), EEC Directive 79/831 Annex V.A8. It counts as physicochemical. The note with it: reversed-phase C18 HPLC column, read-out: log P. The source says:
[table] The calibration is effected with unbranched alkan-2-ones (having 3 to 16 carbon atoms) with known logP values (logP values determined on the basis of the retention times by linear interpolation between two successive alkanones).

The test system of data set [8] is unfed adult fleas (Ctenocephalides felis). The data set can be described thus: Ctenocephalides felis test (CTECFE). It is filed as in vivo. The following applies: Ctenocephalides felis, 48 h; 100 ppm in citrated cow's blood; after 2 days; read-out: efficacy (kill). Here is the method:
Ctenocephalides felis Test ([…]) Solvent: 1 part by weight of dimethyl sulphoxide For the purpose of preparing an appropriate active ingredient formulation, 10 mg of active ingredient are mixed with 0.5 ml of dimethyl sulphoxide. A portion of the concentrate is diluted with citrated cow's blood and the desired concentration is established. About 20 unfed adult fleas (Ctenocephalides felis) are introduced into a chamber closed at the top and bottom with gauze. A metal cylinder, the bottom of which is closed with Parafilm, is placed onto the chamber. The cylinder contains the blood/active ingredient preparation, which can be imbibed by the fleas through the Parafilm membrane. After 2 days, the kill in % is determined. 100% means that all fleas have been killed; 0% means that none of the fleas have been killed.

Data set [9] has as its system caterpillars of the armyworm (Spodoptera frugiperda). Put plainly: Spodoptera frugiperda test (SPODFR spray treatment). It is filed as in vivo. The note with it: Spodoptera frugiperda, foliar, 168 h, maize leaf discs, after 7 days, read-out: efficacy. A digest of the protocol: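 Maize leaf discs sprayed with the compound at the desired concentration, formulated in acetone/dimethylformamide with alkylaryl polyglycol ether emulsifier and diluted in water, then infested with armyworm caterpillars after drying. Efficacy read after 7 days as % caterpillars killed (100% = all dead, 0% = none).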

For data set [10], the system named is green peach aphid (Myzus persicae). Put plainly: Myzus test (MYZUPE spray treatment). It is filed as in vivo. The following applies: Myzus persicae, 144 h, Chinese cabbage discs, after 6 days, read-out: efficacy. The procedure, abridged:
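Chinese cabbage discs infested with all stages of Myzus persicae sprayed with active ingredient in acetone/dimethylformamide with alkylaryl polyglycol ether emulsifier, diluted in emulsifier-containing water to test concentration. Efficacy (% aphids killed) read after 6 days.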

The subject of data set [11] is Tick nymphs (Amblyomma hebraeum). The data set can be described thus: Amblyomma hebraeum test (AMBYHE). It counts as in vivo. The following applies: 100 ppm; immersed one minute; after 42 days. The method, then:
Amblyomma hebraeum Test (AMBYHE) Solvent: dimethyl sulphoxide To prepare an appropriate active ingredient formulation, 10 mg of active ingredient are mixed with 0.5 ml of dimethyl sulphoxide and the concentrate is diluted with water to the desired concentration. Tick nymphs (Amblyomma hebraeum) are placed into perforated plastic beakers and immersed in the desired concentration for one minute. The ticks are transferred on filter paper into a Petri dish and stored in a climate-controlled cabinet. After 42 days, the kill in % is determined. 100% means that all of the ticks have been killed; 0% means that none of the ticks have been killed.

[12] abbreviates: pH 2.7, * LC-MS, acidic range pH 2.7, 0.1% aqueous formic acid and acetonitrile.

Structures are written as SMILES. Where two headings read alike, the source gives them in different places.

For `COc1nccnc1-n1nc(C(F)(F)F)c(-c2ccc(Br)cc2)c1N` [Ex. 2], the pest or weed control at 100 ppm in data set [1] is 100%; in data set [5] it was 100%; in [8], 90%. The pest or weed control at 500 g/ha in data set [2] and in data set [3] was 100% in each case. Also, the “efficacy (kill)” value in data set [4] (20 ppm) came out at 80%. Besides, in data set [6], the pest or weed control at 0.02 mg amounted to 100%. Also, in [7] (pH 7.8, *** LC-MS, neutral range pH 7.8, 0.001 molar aqueous ammonium hydrogencarbonate and acetonitrile), the chromatographic logP came out at 3.4.

As to `COc1nccnc1-n1nc(C(F)(F)F)c(-c2cc(C(F)(F)F)cc(C(F)(F)F)c2)c1N` [Ex. 14], the pest or weed control at 500 g/ha in [9], in data set [2], in data set [3] and in data set [10] was 100% each time. Moreover, the pest or weed control at 100 ppm in [1] came out at 100%; in data set [5], 90%; in data set [8] it was 100%. For the same molecule, the “efficacy (kill)” value in data set [4] (20 ppm) is 90%. For the same molecule, the pest or weed control at 0.02 mg in data set [6] worked out at 100%. In addition, in data set [7] (setting [12]), the chromatographic logP was found to be 4.2.

In the case of `COc1nccnc1-n1nc(C(F)(F)F)c(-c2cc(Cl)c3c(c2)OCO3)c1N` [Ex. 48], the “efficacy (kill)” value was determined as 100% in data set [11] and 90% in data set [4] (20 ppm). For the same molecule, the pest or weed control at 500 g/ha in [9] worked out at 100%; in data set [2], 100%; in data set [3], 100%; in data set [10], 90%. Also, the pest or weed control at 100 ppm in data set [1], in data set [5] and in data set [8] was 100% throughout. The pest or weed control at 0.02 mg in data set [6] was determined as 100%. In addition, in data set [7] (setting [12]), the chromatographic logP is 3.14.

As for `COc1nccnc1-n1nc(C)c(-c2cc(Cl)c3c(c2)OCO3)c1N` [Ex. 75], the pest or weed control at 500 g/ha in data set [9], in data set [2], in [3] and in data set [10] was 100% in each case. Moreover, the pest or weed control at 100 ppm in data set [1], in [5] and in [8] was 100% each time. The “efficacy (kill)” value in data set [4] (100 ppm) was determined as 100%. For the same molecule, the pest or weed control at 0.02 mg in data set [6] was 100%. In addition, in data set [7] (setting [12]), the chromatographic logP came to 2.26.

For the molecule `CCc1nn(-c2nccnc2OC)c(N)c1-c1cc(Cl)c2c(c1)OCO2` [Ex. 76], the “efficacy (kill)” value in data set [11] amounted to 100%; in data set [4] (100 ppm) it was 80%. In addition, the results for the pest or weed control at 500 g/ha in [9], in data set [2] and in data set [10] were 83%, 100% and 80%, respectively. The pest or weed control at 100 ppm in [1] was 100%; in [5] it was 100%; in data set [8], 90%. In addition, the pest or weed control at 0.02 mg in data set [6] came out at 100%. Besides, in data set [7] (setting [12]), the chromatographic logP is 2.57.
